Test results as given in patent US11760986B2, “Evolution of proteases” (President and Fellows of Harvard College, priority 2014, dated 2023).

Legend:
wild-type HCV protease = target: T1, wild-type HCV protease (Hepatitis C virus genotype 1a, UniProt P27958, L1039E/L1040E/I1043Q/I1044E/L1047Q/C1073S/C1078L/I1098T/Q1106K/P1112Q/L1179I/C1185S/N1200S, form not given); experiment: In vitro HCV protease inhibition assay with internally quenched fluorescent substrate (HCV RET Substrate 1, Anaspec); type: biochemical; details: 40 nM protease, 7.5 μM substrate, 30° C., IC50±standard deviation
T1 construct: 6xHis-TEVcutsite-HCV protease 2610 . .; fused on or other part: N-terminal Met-6xHis-TEV site, then an NS4A cofactor peptide ([…], about NS4A 21-33 with C22S and V30N); The peptide is fused in front of NS3 residue 4; The helicase domain is absent; the chain ends at NS3 182
Protocol: Purification and in vitro assays of evolved HCV variants. HCV protease variants were sub-cloned by Gibson assembly out of the phage genome and into the previously mentioned EP. EPs were transformed into NEB BL21 DE3 chemically competent cells. Starter cultures were grown to saturation, and 2 mL was used to inoculate 500 mL LB. At OD600=0.6, cultures were transferred to 20° C. and induced with 0.5% arabinose for 6 h. Cells were harvested by centrifugation at 5,000 g for 10 m, and resuspended in lysis/bind buffer (50 mM Tris-HCl pH 8.0, 500 mM NaCl, 10% glycerol, 5 mM imidazole). Cells were lysed by sonication for a total of 2 m, and then centrifuged for 20 m at 18,000 g to clarify the lysate. Supernatant was flowed through 0.2 mL His-pur nickel resin spin columns that were equilibrated with binding buffer (Pierce-Thermo). […] Protein concentrations were determined by UV280 on a Nanodrop machine and calculated using an extinction coefficient of 19,000 cm^−1 M^−1 and a molecular weight of 23 kDa.
In vitro assays were performed using the commercial HCV RET Substrate 1 (Anaspec), an internally quenched probe that fluoresces upon proteolytic cleavage, according to the manufacturer's instructions. […] Assays were performed in triplicate, and initial reaction velocities were calculated and normalized to controls without inhibitor. […]

HCV protease D168E [1] = target: T2, HCV protease D168E (Hepatitis C virus genotype 1a, UniProt P27958, L1039E/L1040E/I1043Q/I1044E/L1047Q/C1073S/C1078L/I1098T/Q1106K/P1112Q/L1179I/C1185S/D1194E/N1200S, form not given); type: biochemical; details: HCV protease D168E; 40 nM protease, 7.5 μM substrate, 30° C.; IC50±standard deviation
T2 construct: 6xHis-TEVcutsite-HCV protease 2610 . .; fused on or other part: N-terminal Met-6xHis-TEV site, then an NS4A cofactor peptide ([…], about NS4A 21-33 with C22S and V30N); The peptide is fused in front of NS3 residue 4; The helicase domain is absent; the chain ends at NS3 182
Protocol: (§1) Purification and in vitro assays of evolved HCV variants. HCV protease variants were sub-cloned by Gibson assembly out of the phage genome and into the previously mentioned EP. EPs were transformed into NEB BL21 DE3 chemically competent cells. Starter cultures were grown to saturation, and 2 mL was used to inoculate 500 mL LB. At OD600=0.6, cultures were transferred to 20° C. and induced with 0.5% arabinose for 6 h. Cells were harvested by centrifugation at 5,000 g for 10 m, and resuspended in lysis/bind buffer (50 mM Tris-HCl pH 8.0, 500 mM NaCl, 10% glycerol, 5 mM imidazole). Cells were lysed by sonication for a total of 2 m, and then centrifuged for 20 m at 18,000 g to clarify the lysate. Supernatant was flowed through 0.2 mL His-pur nickel resin spin columns that were equilibrated with binding buffer (Pierce-Thermo). Resin was washed with 4 column volumes of wash buffer (50 mM Tris-HCl pH 8.0, 500 mM NaCl, 10% glycerol, 20 mM imidazole). HCV protease was eluted in 4 column volumes of 50 mM Tris-HCl pH 8.0, 500 mM NaCl, 10% glycerol, 200 mM imidazole. Samples were further purified by size exclusion chromatography on a SuperDex 75 10/300 GL column (GE Healthcare). Size exclusion was performed in 50 mM Tris-HCl pH 8.0, 100 mM NaCl, 10% glycerol, 1 mM DTT. Protein concentrations were determined by UV280 on a Nanodrop machine and calculated using an extinction coefficient of 19,000 cm^−1 M^−1 and a molecular weight of 23 kDa.
(§2) In vitro assays were performed using the commercial HCV RET Substrate 1 (Anaspec), an internally quenched probe that fluoresces upon proteolytic cleavage, according to the manufacturer's instructions. Protease and inhibitors were incubated in assay buffer at room temperature for 5 m prior to addition of substrate. […] The assay buffer contained 50 mM Tris HCl pH 8.0, 100 mM NaCl, 20% glycerol, 5 mM DTT. Assays were performed in triplicate, and initial reaction velocities were calculated and normalized to controls without inhibitor. The data was fit to the Hill Equation using Igor Pro with base and max parameters fixed at one and zero respectively.

HCV protease D168E [2] = type: biochemical, hepatitis C virus; details: D168E versus wild-type HCV protease
Protocol: as §1, §2

HCV protease D168Y [3] = target: T3, HCV protease D168Y (Hepatitis C virus genotype 1a, UniProt P27958, C1073S/C1078L/C1185S/D1194Y/I1043Q/I1044E/I1098T/L1039E/L1040E/L1047Q/L1179I/N1200S/P1112Q/Q1106K/T1100M/T1173A); experiment: biochemical
T3 construct: 6xHis (N); TEV cleavage site (N); NS4a cofactor peptide (fused in the construct, before NS3) (N); made in house; host or cells: E. coli NEB BL21 DE3
Protocol: as §1, §2

HCV protease D168Y [4] = experiment: biochemical; parameters: species or system hepatitis C virus; details: D168Y versus wild-type HCV protease
Protocol: as §1, §2

HCV protease = HCV protease (Hepatitis C virus genotype 1a, UniProt P27958); details: literature value (refs 35, 36); cited from earlier work
[5] = tested on: HCV protease on the HCV PA-RNAP; details: host cells incubated with inhibitor 90 min, then HCV protease phage, luminescence after 3 h
Protocol: Inhibition of PA-RNAP response in host E. coli cells. […] After 3 h of incubation at 37° C., the luminescence of each culture was measured on a Tecan Infinite Pro plate reader and normalized to OD600. In the absence of inhibitor, phage-encoded protease will activate the PA-RNAP leading to robust production of luciferase. Relative dose responses to inhibitors compared to control cells without drug were measured in triplicate.

CC(C)(C)OC(=O)N[C@H]1CCCCC/C=C\[C@@H]2C[C@@]2(C(=O)NS(=O)(=O)C2CC2)NC(=O)[C@@H]2C[C@@H](OC(=O)N3Cc4cccc(F)c4C3)CN2C1=O [danoprevir]
IC50 (wild-type HCV protease): 1.3 ± 0.1 nM | IC50 (HCV protease D168E [1]): 38.9 ± 2.4 nM | increase of the IC50 by the mutation (HCV protease D168E [2]): ~30 fold | IC50 (HCV protease D168Y [3]): 34.4 ± 2.8 nM | increase of the IC50 by the mutation (HCV protease D168Y [4]): ~30 fold | IC50 (HCV protease): ~0.3 nM | inhibition of cellular gene expression arising from the activity of HCV protease on the HCV PA-RNAP [5]: in a dose-dependent manner

C=C[C@@H]1C[C@]1(NC(=O)[C@@H]1C[C@@H](Oc2ncc(OC)c3ccc(Cl)cc23)CN1C(=O)[C@@H](NC(=O)OC(C)(C)C)C(C)(C)C)C(=O)NS(=O)(=O)C1CC1 [asunaprevir]
increase of the IC50 by the mutation (HCV protease D168E [2]): ~10 fold | increase of the IC50 by the mutation (HCV protease D168Y [4]): 30 fold | inhibition of cellular gene expression arising from the activity of HCV protease on the HCV PA-RNAP [5]: in a dose-dependent manner
